According to paper PMC8704389, “New Insights into the Hypotensins from Tityus serrulatus Venom: Pro-Inflammatory and Vasopeptidases Modulation Activities” (Toxins, 2021):
No end group written: not given here.

Legend:
ACE = test system: T1, ACE; assay: Stability of peptides against ACE (susceptibility to hydrolysis, RP-HPLC); format: in vitro ADME; settings: rabbit, isolated ACE (angiotensin-converting enzyme); 30 µM peptide, ACE 3.0 ng, Tris HCl 100 mM, NaCl 50 mM, ZnCl2 10 µM, pH 7.0, 4 h, 37 °C, RP-HPLC C18, UV 214 nm; read-out: hydrolysis products after incubation with ACE
T1 construct: Angiotensin Converting Enzyme (ACE) from rabbit lung; purchased Sigma-Aldrich; host or cells: rabbit lung tissue
Procedure: (§1) Figure 1 Analysis of the susceptibility to hydrolysis of the hypotensins over the vasopeptidases NEP and ACE. Incubations were carried out in Tris HCl 100 mM, NaCl 50 mM and ZnCl2 10 µM, pH 7.0, for the ACE assays, and, for the NEP assays, in Tris HCl 50 mM, pH 7.5 buffer, for four hours at 37 °C. (A) TsHpt-I control (black line) and after incubation with NEP (red line). (B) TsHpt-II control (black line) and TsHpt-II incubated with NEP (red line). (C) TsHpt-I control (black line) and incubated with ACE (red line). (D) TsHpt-II control (black line) and after incubation with ACE (red line). The samples of negative and experimental controls (A) TsHpt-I and (B) TsHpt-II are shown on the left and right, respectively. The hydrolysis products were considered ≤5%. The gradient used was 20% to 60% solvent B in 20 min, and 60% to 100% solvent B in 5 min (flow 1 mL/min, absorbance at 214 nm). Restek Ultra C-18 5 µm column, 250 × 4.6 mm.
(§2) The synthetic peptides TsHpt-I and TsHpt-II (30 µM) were incubated with ACE (3.0 ng), in Tris HCl 100 mM, NaCl 50 mM and ZnCl2 10 µM, pH 7.0 buffer, and NEP (1.5 ng), in Tris HCl 50 mM, pH 7.5 buffer, at 37 °C for 4 h. Samples containing only the synthetic peptides were used as the negative control. After incubation, samples were analyzed by reverse phase chromatography on RP-HPLC (Shimadzu, Kyoto, Japan), using a Restek Ultra C-18 column (5 µm, 250 × 4.6 mm). […]

NEP = assay: in vitro; format: in vitro ADME; settings: human, isolated enzyme neprilysin; 30 µM peptide, NEP 1.5 ng, Tris HCl 50 mM, pH 7.5, 4 h, 37 °C, RP-HPLC C18, UV 214 nm; read-out: hydrolysis products after incubation with NEP
Procedure: as §1, §2

[1] = test system: murine peritoneal macrophages; assay: Cell viability of murine peritoneal macrophages, MTT method; format: cell-based, BALB/c mice; settings: 24 h
Procedure: Figure 3 Cytotoxic effect of hypotensins I and II on murine peritoneal macrophages in vitro. Peritoneal exudate macrophages from naïve BALB/c mice were cultured for 24 h in the presence of TsHpt-I (A) and -II (B) at concentrations of 10 µg/mL, 50 µg/mL and 100 µg/mL. Cells cultured with medium alone or in the presence of 5 µg/mL LPS were used as the controls. Cell viability was determined by the MTT method. The results represent the mean ± SD of two independent experiments performed in triplicate. * p < 0.05.
(§3) Peritoneal exudate cells (BALB/c naïve mice, n = 6) were collected by two washes with 5 mL of RPMI medium. The cells obtained were washed twice with RMPI medium, at 400 g, for 10 min, at 18 °C, and resuspended in R10 medium (RPMI + 10% fetal cow serum). After counting in a Neubauer chamber, in the presence of Trypan blue, the cell concentration was adjusted to 2 × 10^6 cells/mL. Cells were distributed into 96-well culture plates (2 × 10^5 cells/100 µL/well) and incubated for 2 h at 37 °C and 5% CO2. After incubation, non-adherent cells were discarded, and adherent cells (macrophages) were resuspended in R10 medium containing the respective tested stimuli, at different concentrations, in triplicates, in a final volume of 200 µL/well. Cells resuspended in R10 medium were used as a negative control, and cells stimulated with LPS (5 µg/mL) as a positive control. Cells were then incubated for 24 h at 37 °C and 5% CO2. After this period, the culture supernatants were collected and stored at −80 °C, for subsequent dosage of cytokines, and cell viability was determined by MTT assay.
After a 24-h period of incubation of cells with hypotensins (10 µg/mL, 50 µg/mL and 100 µg/mL), MTT assays were performed, consisting of the addition of 100 µL of R10 containing 0.5 mg/mL of tetrazolium salt 3-(4.5-dimethylthiazol-2-yl)-2,5-diphenyltetrazolium bromide (MTT) in all wells, followed by a new incubation, under the same conditions, for 4 h. Then, the supernatants were discarded, and 100 µL/well of DMSO were added to dissolve the formed crystals. Absorbance was determined in a spectrophotometer at 540 nm. Cell viability was calculated based on the absorbances of the samples and the negative control (cells cultivated only with R10).

[2] = test system: murine peritoneal macrophages; assay: Cytokine production by murine peritoneal macrophages, CBA method; format: cell-based, BALB/c mice; settings: 24 h; for release of IL-10, IL-12p70, IFN-γ and MCP-1: 10, 50 and 100 µg/mL, data not shown
Procedure: Figure 4 Cytokine production by murine peritoneal macrophages stimulated in vitro with TsHpt-I and -II. Peritoneal exudate macrophages from naïve BALB/c mice were cultured for 24 h in the presence of TsHpt-I (A,C) and -II (B,D), at concentrations of 10 µg/mL, 50 µg/mL and 100 µg/mL. Cells cultured with medium alone or in the presence of 5 µg/mL LPS were used as negative and positive controls, respectively. The concentrations of TNF (A,B) and IL-6 (C,D) were determined by the CBA method, according to the manufacturer’s instructions. The results represent the mean ± SD of three independent experiments performed in triplicate. * p < 0.05.
as §3
The concentration of pro- and anti-inflammatory cytokines (IL-6, IL-10, IL-12p70, […], MCP-1 and TNF) in the samples incubated with both hypotensins (10 µg/mL, 50 µg/mL and 100 µg/mL) was determined by the CBA method (BD Cytometric Bead Array Mouse Inflammation Kit), according to the manufacturer’s instructions. The samples were acquired in a BD FACSCanto II flow cytometer, and the data were analyzed using BD FCAP Array version 3.0 software.

[3] = 10 µg/mL, control (medium) = 100%, two independent experiments in triplicate
[4] = 100 µg/mL, three independent experiments in triplicate

Row | Sequence | metabolised at 4 h, 30 µM (ACE) [%] | metabolised at 4 h, 30 µM (NEP) [%] | cell viability [1, 3] | cell viability ([1]; 100 µg/mL) | release of IL-6 [2, 4] | release of TNF [2, 4] | release of IL-10, IL-12p70, IFN-γ and MCP-1 [2]
1 | AEIDFSGIPEDIIKEIKETNAKPPA [TsHpt-II] | ≤ 5 | ≤ 5 | about 75% | not able to decrease cellular viability | induced the release of IL-6 | release of significant levels of TNF | None of the peptides were able to induce the release
2 | AEIDFSGIPEDIIKQIKETNAKPPA [TsHpt-I] | ≤ 5 | ≤ 5 | about 75% | not able to decrease cellular viability | – | release of significant levels of TNF | None of the peptides were able to induce the release
